Where two headings read alike, the source gives them in different places.
How the values were obtained:
β1 and β2 receptors = conditions: cited from earlier work
β-receptor = β-receptor (Cavia porcellus, UniProt H0W3H1); experiment: Receptor binding assay, [3H]-dihydroalprenolol, heart ventricle membranes
Method: Method of receptor binding assay. After punching the heads of guinea pigs, the blood was drained and the heart ventricle immediately removed. The ventricles were placed in 10 vols. of ice-cold buffer (250 mM sucrose, 1 mM Magnesium Chloride, 50 mM Tris-HCl, pH 7.5) and all subsequent procedures were carried out at 4° C. The ventricles were homogenized using a homogenizer 3-4 times. The period of each homogenization took 15 seconds. […] The supernatant was further centrifuged at 10,000 g and the final pellet was resuspended in a small volume of 75 mM Tris buffer containing 25 mM Magnesium Chloride. The membrane protein content was determined by a protein assay dye. The receptor binding assay was initiated by incubating 100 μl of, a membrane protein solution with 50 μl of [^3 H]-dihydroalprenolol(^3 H-DHA) and the competing drugs. Additional buffer was added to increase the reaction volume up to 250 μl. The binding reaction was activated at 25° C. water by constantly shaking for 60 minutes. The binding reaction was stopped by diluting it with 1 ml of ice-cold assay buffer. The solution was then filtered on a Whatman GF/C glass fiber filter paper under vacuum suction. The filters were washed 3 times with ice-cold assay buffer and dried at 60±C. in an oven for 2 hrs. Then 4 ml of scintillation fluid was added and the radioactivity was counted on β-counter.

[1] = system: isolated rat right atrium; experiment: Isolated rat right atrium pretreated with reserpine; type: cell-based
in vivo = conditions: mouse, mice, read-out: LD50 (95% C.L.)
[2] = system: acetic acid-induced writhing syndrome; experiment: Acetic acid-induced writhing (antinociceptive test); type: in vivo, male mice (ddk strain); conditions: for Protection / Writhes No. (Ave. ± S.E.): 1.25 mg/kg i.p., N = 8; for ED50: Mus musculus, ip, read-out: ED50 (95% C.I.); for Potency ratio: relative to DZ = 1.00
Method: Following the method described by Koster antinociceptive tests were carried out in male mice after intraperitoneal administration of test solution. […] The test solution was administered by intraperitoneal injection of a single dose 0.2 ml (vehicle administered as control). Twenty minutes after injection, 0.2 ml of 0.7% acetic acid was injected intraperitoneally to induce writhing.

[3] = system: platelet aggregation induced by collagen; experiment: Collagen-induced platelet aggregation in platelet rich plasma; type: cell-based; conditions: 10 μg/ml collagen, PRP; for IC100: Platelet, FIG. 18, read-out: concentration completely inhibiting platelet aggregation
Method: A monophasic aggregation curve was observed when 10 μg/ml of collagen was added to platelet rich plasma (PRP).

β2 adrenergic receptor = molecular target: T1, β2 adrenergic receptor (Rattus norvegicus, UniProt P10608); experiment: Antagonism of isoproterenolol on isolated rat uterus horns; type: cell-based; conditions: 10^-8 -10^-6 M isoproterenolol
T1 construct: from tissue; host or cells: rat uterus horns (isolated organ, stilbestrol and reserpine pretreated)
Method: Female rats were intraperitonealy injected with stilbestrol (1 mg/kg) to elevate the sensitivity of β2 adrenergic receptor in uterus horns. The rats were subsequently administered reserpine to deplete the catecholamine in uterus. The isolated uterus horns were treated with phenoxybenzamine to block the neuronal uptake and the interaction between neuron cells and the adrenergic receptor.

[4] = system: heart rate and blood pressure; experiment: Heart rate and blood pressure of anesthetized rats (i.v.); type: in vivo
Source text: […]. The effect of DZN on heart rate and blood pressure were monitored.
[…]. Exp. Ther., vol. 96, 99-113). The ID50 value is the response of a β drug which produces a response in 50% of […].

platelets = conditions: cited from earlier work
[5] = system: heart rate and blood pressure; experiment: Heart rate and blood pressure changes of rats induced by guaiacoxypropanolamines; type: in vivo
[6] = mice, Litchfield and Wilcoxon method
[7] = 10 min after dosing, 1.0 mg/kg iv, means ± SE (n = 8)
[8] = 15 min after dosing, 1.0 mg/kg iv, means ± SE (n = 8)
[9] = 30 min after dosing, 1.0 mg/kg iv, means ± SE (n = 8)
[10] = 60 min after dosing, 1.0 mg/kg iv, means ± SE (n = 8)

Chain of β-receptor (H0W3H1 1-470): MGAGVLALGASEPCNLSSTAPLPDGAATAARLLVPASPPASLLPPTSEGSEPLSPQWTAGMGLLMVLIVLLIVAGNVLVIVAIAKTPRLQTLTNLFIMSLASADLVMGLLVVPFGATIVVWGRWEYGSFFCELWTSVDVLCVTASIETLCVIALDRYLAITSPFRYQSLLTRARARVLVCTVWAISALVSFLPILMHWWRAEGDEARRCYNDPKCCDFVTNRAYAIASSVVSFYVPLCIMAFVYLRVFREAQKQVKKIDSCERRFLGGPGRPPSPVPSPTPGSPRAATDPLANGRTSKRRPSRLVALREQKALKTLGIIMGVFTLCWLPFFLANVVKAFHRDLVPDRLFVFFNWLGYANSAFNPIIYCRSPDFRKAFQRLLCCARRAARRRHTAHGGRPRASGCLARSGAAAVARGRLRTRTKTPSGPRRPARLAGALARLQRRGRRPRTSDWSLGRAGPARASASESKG
T1 sequence (P10608 whole entry): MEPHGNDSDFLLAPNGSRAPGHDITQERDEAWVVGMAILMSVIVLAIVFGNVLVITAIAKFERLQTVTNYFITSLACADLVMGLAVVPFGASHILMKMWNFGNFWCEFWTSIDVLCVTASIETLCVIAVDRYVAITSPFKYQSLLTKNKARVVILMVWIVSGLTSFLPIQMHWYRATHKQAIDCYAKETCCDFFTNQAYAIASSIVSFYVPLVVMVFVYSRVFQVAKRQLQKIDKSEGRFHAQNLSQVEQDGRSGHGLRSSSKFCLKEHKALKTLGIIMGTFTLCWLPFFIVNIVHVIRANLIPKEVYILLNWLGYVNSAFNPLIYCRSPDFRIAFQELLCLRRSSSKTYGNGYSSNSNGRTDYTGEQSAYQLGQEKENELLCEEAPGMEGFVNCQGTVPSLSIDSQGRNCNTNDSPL

## CC(C)NCC(O)COc1ccc(CC(N)=O)cc1 (racemic) [Atenolol, reference compound]
β1 and β2 receptors
  cardioselectivity: possess cardioselectivity

## COc1cc(CCC(C)=O)ccc1OCC(O)CNC(C)C (racemic) [ZPN]
β-receptor
  EC50: 11 µM

## CCCC(=O)Nc1ccc(OCC(O)CNC(C)C)c(C(C)=O)c1 (centres unmarked) [Acebutolol]
β1 and β2 receptors
  cardioselectivity: possess cardioselectivity

## COc1cc(C=CC(C)=O)ccc1O [DZ, 4-(4'-hydroxy-3'-methoxyphenyl)-3-buten-2-one]
[1]; 10^-9 -10^-5 M
  effect on heart rate: did not affect the heart rate within 10^-9 -10^-5 M
In vivo; ip
  LD50: > 1000 mg/kg
In vivo; po
  LD50: > 1000 mg/kg
[2]
  Protection: 63.06%
  Writhes No. (Ave. ± S.E.): 29.60 ± 3.75
[2]; [6]
  ED50: 0.38 mg/kg
[3]
  inhibition of collagen-induced platelet aggregation: dose-dependent inhibition of platelet aggregation
  IC100: 250 µM

## COc1cc(C=CC(C)=O)ccc1OCC1CO1 (centres unmarked) [DZE, 4-[4'-(2,3-Epoxypropoxy)-3'-methoxyphenyl]-3-buten-2-one]
[2]
  Protection: 65.69%
  Writhes No. (Ave. ± S.E.): 27.50 ± 3.32
  Potency ratio: 1.70
[2]; [6]
  ED50: 0.23 mg/kg
[3]
  inhibition of collagen-induced platelet aggregation: dose-dependent inhibition of platelet aggregation
  IC100: 100 µM

## COCCc1ccc(OCC(O)CNC(C)C)cc1 (centres unmarked) [Metoprolol]
β1 and β2 receptors
  cardioselectivity: possess cardioselectivity

## CC(C)NCC(O)c1ccc(O)c(O)c1 (centres unmarked) [isoproterenolol, reference compound]
[1]; FIG. 16
  effect on heart rate and contraction force: increases the heart rate and contraction force
[1]; FIG. 17
  concentration of isoproterenolol giving maximum effect: 3 µM
β2 adrenergic receptor
  effect on isolated uterus horn smooth muscle: dose-related decrease in relaxation force
[4]; isoproterenolol 0.5 mg/kg
  effect on blood pressure: decreased blood pressure
  effect on heart rate: increased the heart rate

## CC(C)NCC(O)COc1cccc2ccccc12 (centres unmarked) [propranolol, reference compound]
platelets
  adherence of platelets on collagen: inhibit platelet release and the adherence of platelets on collagen
  platelet release: inhibit platelet release
  shape change of platelets: does not inhibit the shape change of platelets
[4]; FIGS. 6(A), 6(B)
  effect on isoproterenolol-induced heart rate and blood pressure changes: antagonized the effects of isoproterenolol
[4]; Rattus norvegicus, iv, anesthetized rats, Litchfield method, read-out: ID50 : heart rate response (95% C.I.)
  ED50: 0.14 mg/kg
[4]; i.v., anesthetized rats, Litchfield method
  ID50 : heart rate response (95% C.I.): 0.14 (0.96-0.02) mg/kg
[4]; i.v., statistical significance not found
  time of slightly reduced blood pressure after injection: 5 to 10 min
[3]
  inhibition of collagen-induced platelet aggregation: dose-dependent inhibition of platelet aggregation
[5]; 5 min after dosing, 1.0 mg/kg iv, means ± SE (n = 8)
  change in HR: -57.28 ± 5.94 beats/min
[5]; [7]
  change in BP: -6.33 ± 2.16 mmHg
  change in HR: -63.85 ± 7.18 beats/min
[5]; [8]
  change in BP: -6.50 ± 3.26 mmHg
  change in HR: -65.28 ± 8.43 beats/min
[5]; [9]
  change in BP: -4.67 ± 2.66 mmHg
  change in HR: -62.57 ± 9.06 beats/min
[5]; [10]
  change in BP: 2.17 ± 3.29 mmHg
  change in HR: -52.14 ± 10.93 beats/min
[5]; iv, 1 mg/kg, 5 min
  change in BP: -2.83 ± 1.81 mmHg

## COc1cc(CCC(C)=O)ccc1O [zingerone, 4-(4'-hydroxy-3'-methoxyphenyl)-3-butan-2-one, reference compound]
[2]
  antinociceptive potency relative to DZ: 3 times
  Protection: 71.10%
  Writhes No. (Ave. ± S.E.): 20.75 ± 3.40
  ED50: 0.25 mg/kg
  Potency ratio: 1.50
[3]
  inhibition of collagen-induced platelet aggregation: dose-dependent inhibition of platelet aggregation
